{
  "source": "patent EP0164904B1",
  "about": "“Method of determining an infusion rate profile and infusion device” (THE UNIVERSITY OF MELBOURNE, priority 1984, dated 1985)",
  "key": {"[1]": {"assay": "Plasma Drug Efflux profile derived from actual infusion data (iterative infusion method, scaled to Lean Body Mass)", "assay_type": "in vivo, human subjects", "details": "Figure 9, after three iterations", "source_text": "Central to the approach used in this method is the development of a new concept in pharmacokinetics, the Plasma Drug Efflux. This concept simply stated is that at any instant, if the plasma concentration of a drug is neither rising nor falling, the rate of delivery of the drug to the circulation ie. the infusion rate, must equate to the rate at which the drug is being lost from the circulation. It is - unimportant whether the loss is by distribution, metabolism or excretion.\nThen if drug is administered by some arbitrary infusion scheme Q(t), the plasma concentration is C(t) and the rate of drug loss from the plasma may be called the Plasma Drug Efflux, Ep(t).\nIf the plasma drug concentration is constant so that the amount of drug is not changing then the instantaneous rate of drug influx to the plasma (the infusion rate), and the instantaneous concentration in the plasma may be used as an estimate of drug efflux from the plasma, is an estimate of i.e.: [drawing 1]\nThe efflux estimate may then be plotted against time, and will essentially describe a dosing-rate/concentration profile as a function of time which will result in a plateau concentration for all time. […]"}, "[2]": {"assay": "Infusion generated from the Efflux profile; arterial plasma concentration followed over the infusion period", "assay_type": "in vivo, patient", "from_the_text": "Describing first the preferred method of defining a generalised infusion rate profile as applied to anaesthetic drugs, the method comprises the steps of: • (a) first determining the lean body mass (LBM) of a group of subjects. A convenient way of doing this in human subjects is to use the method described by Hallynck T.H. et al in \"Should clearance be normalized to body surface of to lean body mass?\" in British Journal of Clinical Pharmacology, p 523-526, Volume 11, (1981), who presented the following formulae:- Males: LBM = 1.10 x weight - 128 x (weight²/height²) Females: LBM = 1.07 x weight - 148 x (weight²/height²) • (b) Following administration of a suitable bolus dose of a desired drug to achieve unconsciousness, the drug is infused at an arbitrary but known rate throughout the infusion. […]"}, "[3]": {"details": "plasma concentration, cited from earlier work"}},
  "data": [
    {"smiles": "C=CCC1(C(C)C#CCC)C(=O)N=C(O)N(C)C1=O", "note": "(centres unmarked) [methohexitone]", "values": [
      {"measurement": "shape of the Plasma Drug Efflux profile", "setting": "[1]", "value": "bears little relationship to an exponential function, having two distinct humps"},
      {"measurement": "arterial plasma drug concentrations", "setting": "[2]; infusion by Efflux profile of Figure 9 in a typical patient (Figure 10), over a period of five hours", "value": "constant and desired arterial plasma drug concentrations"},
      {"measurement": "departures from the desired level", "setting": "[2]; infusion by Efflux profile, many patients", "value": "no material departures from the desired level in any patient"},
      {"measurement": "concentration likely to result in wakening of the patient", "setting": "[3]; fall to below", "value": "below 3 mg/l"},
      {"measurement": "concentration at which severe depression of the heart and breathing may occur", "setting": "[3]", "value": 10000, "unit": "ng/mL"}
    ]}
  ]
}
